From PMC8962522, “Direct interaction of TrkA/CD44v3 is essential for NGF-promoted aggressiveness of breast cancer cells” (Journal of Experimental & Clinical Cancer Research : CR, 2022)

Tested on: TrkA/CD44 complex in COS-7 cells transfected with TrkA and CD44s or CD44v6
Test: PLA TrkA/CD44s or TrkA/CD44v6 complex formation in COS-7 cells
Type: cell-based, African green monkey (COS-7 cells)
Conditions: NGF 100 ng/ml, 0, 5 or 30 min
Description: Cells (10,000 cells per well) were grown on acid-washed eight-well glass slides (Thermo Scientific) in the appropriate medium supplemented with 10% FBS for 24 h. After NGF treatment, paraformaldehyde (PAF)-fixed cells were incubated with 4% bovine serum albumin (BSA) or 5% FBS (for 1 h at 20 °C), followed by overnight incubation with primary antibodies (rabbit anti-TrkA or rabbit anti-IgG + mouse anti-pan-CD44; mouse anti-CD44v3; mouse anti-CD44v6; mouse anti-IgG2a; mouse anti-IgG2b; or mouse anti-IgG1). PLA was performed following the manufacturer’s instructions in the assay kit (Duolink PLA; Sigma–Aldrich). To obtain the correct representation of the PLA signal for each condition, 30 fields per condition were observed using a fluorescence microscope (Eclipse TiU; Nikon, Japan). The PLA signals (red dots) were automatically quantified using ImageJ software (with an in-house-developed plug-in). […]
Supplementary file 13046_2022_2314_MOESM3_ESM.pdf: Additional file 3: Supplementary Figure 1. […] The expression of all CD44 isoforms (A), CD44 variant 3 (B), CD44 variant 6 (C) and TrkA ([…]; D) was evaluated by RT–qPCR (normalized using PUM-1). No expression of CD44, CD44 variants [3 or 6] or TrkA was detected in COS-7 cells (A-D) compared with that in cells transfected with the expression plasmid carrying each protein. […]

NGF: recombinant human β-NGF (Alomone Labs, Israel)
effect on TrkA/CD44s or TrkA/CD44v6 complex formation (PLA) in COS-7 cells: Neither wild-type COS-7 cells nor COS-7 cells transfected with TrkA and the CD44s or CD44v6 isoform showed the formation of the dynamic TrkA/CD44 complex in PLA
